# According to patent publication US20220235343A1, “NOVEL ADP-RIBOSYL CYCLASE AND INHIBITOR THEREOF” (INDUSTRIAL COOPERATION FOUNDATION CHONBUK NATIONAL …, priority 2019, published 2022):
# Tests used:
# Assay type in all cases: in vivo
# [1] = tested on: kidney tissue of diabetic renal disease mouse model; assay: Histopathological change in kidney tissue of renal disease mouse model (H&E staining); conditions: STZ mice, DCQA i.p. every day for 6 weeks, FIG. 9
# Protocol: The histopathological change in the kidney tissue of a renal disease mouse model was measured by the method reported by Shu B et al. [Shu B, Feng Y, Gui Y, Lu Q, Wei W, Xue X, Sun X, He W, Yang J, Dai C. Cell. Signal. 42:249-258, 2018]
# Specifically, 0.2 mL of 50 mM citrate buffer (pH 4.8) (control group and DCQA group) or 200 μL of 5 mg/mL streptozotocin (STZ, Sigma-Aldrich (USA)) dissolved in 50 mM citrate buffer (STZ group and STZ+DCQA group) was intraperitoneally injected to C57BL/6J mice. Blood glucose was measured from day 2 after the STZ injection and the mice whose blood glucose level was 300 mg/dL were divided into an STZ group and an STZ+DCQA group. […] In order to investigate the possibility as a therapeutic agent for a renal disease, the mouse was sacrificed and serum and kidney were taken. Some of the extracted kidney was fixed in 10% formalin. The kidney tissue fixed in 10% formalin was cut into kidney tissue sections on a slide glass using a cryostat microtome. The kidney tissue sections were washed with running water for 5 minutes and then stained with hematoxylin for 5 minutes. After the staining, the tissue was washed with running water for 5 minutes. Then, the tissue was immersed in 157 mM hydrochloric acid 2 times and taken out quickly. Then, the tissue was immersed once in 0.25% ammonia water and taken out quickly. After washing again with running water for 5 minutes and staining with eosin for about 30 seconds, the tissue was reacted with 70% ethanol for 30 seconds, with 80% ethanol for 30 seconds, with 90% ethanol for 30 seconds, with 100% ethanol for 30 seconds, again with 100% ethanol for 30 seconds, and then again with 100% ethanol for 30 seconds. Finally, after reacting with xylene for 5 minutes and again with xylene for 5 minutes or longer, a cover glass was attached using a mounting solution.
# [2] = tested on: TGF-β1, fibronectin and collagen IV in kidney tissue; assay: Expression of TGF-β1, fibronectin and collagen IV in kidney tissue of renal disease mouse model (immunofluorescence); conditions: STZ mice, DCQA i.p. every day for 6 weeks, FIG. 8
# Protocol: The change in the expression of TGF-β1, fibronectin and collagen IV in the kidney tissue of a renal disease mouse model was measured by the method reported by Kim S Y et al. [Kim S Y, Park K H, Gul R, Jang K Y, Kim U H. Am. J. Physiol. Renal Physiol. 296: F291-F297, 2009].
# Specifically, 0.2 mL of 50 mM citrate buffer (pH 4.8) (control group and DCQA group) or 200 μL of 5 mg/mL streptozotocin (STZ, Sigma-Aldrich (USA)) dissolved in 50 mM citrate buffer (STZ group and STZ+DCQA group) was intraperitoneally injected to C57BL/6J mice. Blood glucose was measured from day 2 after the STZ injection and the mice whose blood glucose level was 300 mg/dL were divided into an STZ group and an STZ+DCQA group. […] In order to investigate the possibility as a therapeutic agent for a renal disease, the mouse was sacrificed and serum and kidney were taken. Some of the extracted kidney was fixed in 10% formalin. The kidney tissue fixed in 10% formalin was cut into kidney tissue sections on a slide glass using a cryostat microtome. The kidney tissue sections were washed with a TTBS (Tris-buffered saline (TBS) with 0.1% Tween 20) buffer and then incubated with a TTBS buffer containing 1% bovine serum albumin (BSA) for 1 hour. The tissues were reacted with primary antibodies (TGF-β1 (Santa Cruz, USA), fibronectin (Santa Cruz, USA) and collagen IV (Abcam, UK)) diluted in a TTBS buffer containing 1% bovine serum albumin (BSA) to 1:200 at 4° C. for 12 hours or longer. After washing the tissues that reacted with the primary antibodies 3 times with a TTBS buffer, they were reacted with FITC-labeled secondary antibodies diluted in a TTBS buffer to 1:200 in the dark at room temperature for 1 hour. Then, after washing 3 times with a TTBS buffer, a cover glass was attached using a mounting solution. The stained kidney tissue was observed using a fluorescence microscope (Carl Zeiss, Germany) for observing green fluorescence.
# [3] = tested on: diabetic renal disease mouse model (STZ, C57BL/6J mice); assay: Blood glucose, kidney-to-body weight ratio, creatinine clearance rate and urine albumin level in STZ renal disease mouse model; conditions: STZ+DCQA group vs STZ, DCQA 9 μg/mL 100 μL intraperitoneally every day for 6 weeks
# Protocol: The blood glucose, kidney-to-body weight ratio, creatinine clearance rate and urine albumin level in a renal disease mouse model were measured by the method reported by Kim S Y et al. [Kim S Y, Park K H, Gul R, Jang K Y, Kim U H. Am. J. Physiol. Renal Physiol. 296: F291-F297, 2009]
# Specifically, 0.2 mL of 50 mM citrate buffer (pH 4.8) (control group and DCQA group) or 200 μL of 5 mg/mL streptozotocin (STZ, Sigma-Aldrich (USA)) dissolved in 50 mM citrate buffer (STZ group and STZ+DCQA group) was intraperitoneally injected to C57BL/6J mice. Blood glucose was measured from day 2 after the STZ injection and the mice whose blood glucose level was 300 mg/dL were divided into an STZ group and an STZ+DCQA group. […] On the last day, the mouse was put in a metabolic cage and urine was collected for 24 hours.
# Then, the body weight and blood glucose of the mouse were measured (FIG. 6A). In addition, in order to investigate the possibility as a therapeutic agent for a renal disease, the mouse was sacrificed and serum and kidney were taken. After measuring kidney-to-body weight ratio (FIG. 6B), some of the kidney was fixed in 10% formalin for fluorescent staining and H&E staining, and the remainder was subjected to ADPR cyclase activity and cADPR concentration measurement. Creatinine clearance rate was calculated by measuring the creatinine levels in urine and serum using a creatinine assay kit (Bioassay Systems, USA) (FIG. 6C), and urine albumin level was measured using an albumin assay kit (Bioassay Systems, USA) (FIG. 6D).
smiles,measurement,setting,value
"O=C(/C=C/c1ccc(O)c(O)c1)OC1[C@H](O)CC(OC(=O)/C=C/c2ccc(O)c(O)c2)(C(=O)O)C[C@H]1O (stereo partly shown) [DCQA, 1,4-dicaffeoylquinic acid]","formation of transitional epithelial cells increased by STZ, recovered by DCQA",[1],to a level similar to that of the control group
same,"glomerulus hypertrophy increased by STZ, recovered by DCQA",[1],to a level similar to that of the control group
same,"infiltration of inflammatory cells increased by STZ, recovered by DCQA",[1],to a level similar to that of the control group
same,"expression level of TGF-β1 increased by STZ, decreased by DCQA",[2],to the level of the control group
same,"expression level of collagen IV increased by STZ, decreased by DCQA",[2],to the level of the control group
same,"expression level of fibronectin increased by STZ, decreased by DCQA",[2],to the level of the control group
same,blood glucose,[3]; FIG. 6A,did not show decreased in blood glucose
same,kidney to body weight,[3]; FIG. 6B,significant decrease in kidney to body weight
same,creatinine clearance rate,[3]; FIG. 6C,significant increase in creatinine clearance rate
same,urine albumin level,[3]; FIG. 6D,significant decrease in the urine albumin level
